Results on 17 compounds are retold here after patent US9701628B2, “12-epi pleuromutilins” (NABRIVA THERAPEUTICS AG, priority 2014, dated 2017).

Experiment [1] deals with Staphylococcus aureus ATCC 49951. Briefly: MIC by broth microdilution (CLSI) against Staphylococcus aureus ATCC 49951. Format: cell-based. The procedure:
(§1) The in vitro activity against aerobic bacteria was determined by Broth Microdilution Test according to the Clinical and Laboratory Standards Institute (CLSI, former NCCLS) Document M7-A9 Vol 32, No 2 “Methods for Dilution Antimicrobial Susceptibility Tests for Bacteria that Grow Aerobically; Approved Standard—Ninth Edition (2012)”; and the test against anaerobic bacteria was performed by Agar Dilution Test according to the Clinical and Laboratory Standards Institute (CLSI, former NCCLS), Document, M11-A8, Vol. 32, No. 5: “Methods for Antimicrobial Susceptibility Testing of Anaerobic Bacteria; Approved Standard—Eighth Edition (2012)”. Performance standards and interpretive criteria followed the CLSI Document, M100-S23: “Performance Standards for Antimicrobial Susceptibility Testing; Twenty-Third Informational Supplement” (2013). The in vivo activity was tested by the septicaemia mouse model against Staphylococcus aureus and Escherichia coli.
(§2) The antibacterial activity expressed as minimal inhibitory concentration (MIC) was determined according to the approved standard reference recommendations of CLSI (former NCCLS) as described in the description of the application.

Experiment [2] concerns Escherichia coli ATCC25922. Briefly: MIC by broth microdilution (CLSI) against Escherichia coli ATCC 25922. Type of experiment: cell-based. The procedure: as §1, §2
Where [3] appears, read: ATCC49951, Staphylococcus aureus ATCC 49951, in vitro, read-out: MIC.
Where [4] appears, read: Escherichia coli ATCC25922, in vitro, read-out: MIC.
The mark [5] stands for this setting: Staphylococcus aureus ATCC 49951, in vitro.
Setting [6] is: Escherichia coli ATCC25922, in vitro.

Molecules are shown by their SMILES. ≈ marks a conversion by molar mass, not a printed value. Structures can show the parent of a compound that is named as a salt. Where two headings read alike, the source gives them in different places. A value given as a limit tells only on which side of the number the result lay.

With `C[C@@H]1CC[C@@]23CCC(=O)[C@H]2[C@]1(C)[C@H](OC(=O)CSC1CCN(C(=O)CN)CC1)C[C@](C)(CNCc1ccc(OCCN)cc1)[C@@H](O)[C@@H]3C` [Example 83, 12-epi-12-desvinyl-14-O-{[1-(2-Amino-acetyl)-piperidin-4-yl-sulfanyl]-acetyl}-12{2-[4-(2-amino-ethoxy)-benzylamino]-methyl} mutilin trihydrochloride], the minimum inhibitory concentration (MIC) in experiment [1] (setting [3]) was 0.25 µg/mL; in experiment [2] (setting [4]), 1 µg/mL.

On to `C[C@@H]1CC[C@@]23CCC(=O)[C@H]2[C@]1(C)[C@H](OC(=O)CSc1cccc(CN)c1)C[C@](C)(CNCCCN)[C@@H](O)[C@@H]3C.Cl.Cl.Cl` [Example 86, 12-epi-12-desvinyl-14-O-[(3-Aminomethyl-phenylsulfanyl)-acetyl]-12-[(3-amino-propylamino)-methyl] mutilin trihydrochloride], for which the MIC in experiment [1] (setting [5]) was determined as 0.06 µg/mL; in experiment [2] (setting [6]) it was 0.5 µg/mL.

With `C[C@@H]1CC[C@@]23CCC(=O)[C@H]2[C@]1(C)[C@H](OC(=O)CSc1ccc(CN)cn1)C[C@](C)(CNCc1ccc(CN)cc1)[C@@H](O)[C@@H]3C` [Example 98, 12-epi-12-desvinyl-14-O-{[5-Aminomethyl-pyridin-2-yl-sulfanyl)]-acetyl}-12-[(4-aminomethyl-benzylamino)-methyl] mutilin tetrahydrochloride], the MIC in experiment [1] (setting [3]) stood at 0.125 µg/mL; in experiment [2] (setting [4]), 0.5 µg/mL.

Consider `C[C@@H]1CC[C@@]23CCC(=O)[C@H]2[C@]1(C)[C@H](OC(=O)CSc1ccc(CN)cn1)C[C@](C)(CNCc1ccc(CN)c(F)c1)[C@@H](O)[C@@H]3C` [Example 99, 12-epi-12-Desvinyl-14-O-{[5-aminomethyl-pyridin-2-yl-sulfanyl)]-acetyl}-12-[(4-aminomethyl-3-fluoro-benzylamino)-methyl] mutilin tetrahydrochloride], for which the figures for the MIC in experiment [1] (setting [3]) and in experiment [2] (setting [4]) were 0.25 µg/mL and 0.5 µg/mL, respectively.

In the case of `CC1C(O)C(C)(CNCc2cc(F)c(CN)cc2F)CC(OC(=O)CSc2ccc(CN)cn2)C2(C)C(C)CCC13CCC(=O)C32.Cl.Cl.Cl.Cl` (stereo not drawn) [Example 103, 12-epi-12-desvinyl-14-O-{[5-Aminomethyl-pyridin-2-yl-sulfanyl]-acetyl}-12-[(4-aminomethyl-2,5-difluoro-benzylamino)-methyl] mutilin tetrahydrochloride], the MIC in experiment [1] (setting [5]) stood at 0.5 µg/mL; in experiment [2] (setting [6]), 4 µg/mL.

As for `CC1C(O)C(C)(CNCCCN)CC(OC(=O)CSc2ccc(CNCc3ccc(CN)cc3)cc2)C2(C)C(C)CCC13CCC(=O)C32.Cl.Cl.Cl.Cl` (stereo not drawn) [Example 115, 12-epi-12-desvinyl-14-O-{{4-[(4-Aminomethyl-benzylamino)-methyl]-phenylsulfanyl}-acetyl}-12-[(3-amino-propylamino)-methyl] mutilin tetrahydrochloride], the results for the MIC result in experiment [1] (setting [5]) and in experiment [2] (setting [6]) were “≦0.03 μg/mL” and 0.25 µg/mL, respectively.

On to `C[C@@H]1CC[C@@]23CCC(=O)[C@H]2[C@]1(C)[C@H](OC(=O)CSC1CCCNCC1)C[C@](C)(CNCCCCCCN)[C@@H](O)[C@@H]3C` (stereo partly drawn) [Example 130, 12-epi-12-desvinyl-14-O-[(Azepan-4-ylsulfanyl)-acetyl]-12-[(6-amino-hexylamino)-methyl] mutilin trihydrochloride], for which the minimum inhibitory concentration (MIC) is at most 0.03 µg/mL in experiment [1] (setting [3]) and 0.5 µg/mL in experiment [2] (setting [4]).

Regarding `CC1C(O)C(C)(CNCCCCCCNC(=N)N)CC(OC(=O)CSC2CCCNCC2)C2(C)C(C)CCC13CCC(=O)C32.Cl.Cl.Cl` (stereo not drawn) [Example 131, 12-epi-12-desvinyl-14-O-[(Azepan-4-ylsulfanyl)-acetyl]-12-[(6-guanidino-hexylamino)-methyl] mutilin trihydrochloride], the figures for the MIC in experiment [1] (setting [5]) and in experiment [2] (setting [6]) were 0.06 µg/mL and 0.125 µg/mL, respectively.

With `C[C@@H]1CC[C@@]23CCC(=O)[C@H]2[C@]1(C)[C@H](OC(=O)CSC1CCCNCC1)C[C@](C)(CCNc1ccc(CN)cc1)[C@@H](O)[C@@H]3C` (stereo partly drawn) [Example 143, 12-epi-12-desvinyl-14-O-[(Azepan-4-ylsulfanyl)-acetyl]-12-[(4-aminomethyl-phenylamino)-ethyl] mutilin trihydrochloride], the MIC in experiment [1] (setting [3]) amounted to 0.125 µg/mL; in experiment [2] (setting [4]) it was 4 µg/mL.

As to `C[C@@H]1CC[C@@]23CCC(=O)[C@H]2[C@]1(C)[C@H](OC(=O)CSC1CCN(C(=O)CN)CC1)C[C@](C)(CCCCCCCCN)[C@@H](O)[C@@H]3C` [Example 146, 12-epi-12-desvinyl-14-O-{[1-(2-Amino-acetyl)-piperidin-4-yl-sulfanyl]-acetyl}-2-(8-amino-octyl) mutilin dihydrochloride], the MIC in experiment [1] (setting [3]) is at most 0.03 µg/mL; in experiment [2] (setting [4]), 8 µg/mL.

On to `C[C@@H]1CC[C@@]23CCC(=O)C2[C@]1(C)[C@H](OC(=O)CSC1CCC(CNC(=O)CN)CC1)C[C@](C)(CCc1ccc(CNCCN)cc1)[C@@H](O)[C@@H]3C` (stereo partly drawn) [Example 152, 12-epi-12-desvinyl-14-O-{{4-[(2-Amino-acetylamino)-methyl]-cyclohexylsulfanyl}-acetyl}-12-[2-{4-[(2-amino-ethylamino)-methyl]-phenyl}-ethyl) mutilin trihydrochloride], for which the MIC in experiment [1] (setting [3]) stood at 0.25 µg/mL; in experiment [2] (setting [4]) it was 4 µg/mL.

In the case of `CC1C(O)C(C)(C=Cc2ccc(CNCCN)c(F)c2)CC(OC(=O)CSC2CCCNCC2)C2(C)C(C)CCC13CCC(=O)C32.Cl.Cl.Cl` (stereo not drawn) [Example 157, 12-epi-12-desvinyl-14-O-[(Azepan-4-ylsulfanyl)-acetyl]-12-((E)-2-{4-[(2-amino-ethylamino)-methyl]-3-fluoro-phenyl}-ethenyl) mutilin trihydrochlorid], the figures for the MIC in experiment [1] (setting [5]) and in experiment [2] (setting [6]) were 0.25 µg/mL and 4 µg/mL, respectively.

In the case of `C=C[C@@]1(C)C[C@@H](OC(=O)CSc2nnc(N)[nH]2)[C@]2(C)[C@H](C)CC[C@]3(CCC(=O)[C@H]32)[C@@H](C)[C@@H]1O.Cl` [Example C1, 12-epi-14-O-{[(5-Amino-4H-1,2,4-triazol-3-yl)-sulfanyl]-acetyl} mutilin hydrochloride, reference compound], the MIC in experiment [1] (setting [5]) was found to be 0.5 µg/mL; in experiment [2] (setting [6]) it was 128 µg/mL.

Consider `C=CC1(C)CC(OC(=O)CSc2ccc(CC(=O)NCC(C)N)cc2)C2(C)C(C)CCC3(CCC(=O)C32)C(C)C1O.Cl` (stereo not shown) [Example C2, 14-O-{{4-[(2-Amino-propylcarbamoyl)-methyl]-phenylsulfanyl}-acetyl} mutilin hydrochloride, reference compound], for which the MIC result in experiment [1] (setting [5]) was “≦0.03 μg/mL”; in experiment [2] (setting [6]), 32 µg/mL.

For `CC1C(O)C(C)(CNCCCN)CC(OC(=O)CSC2CCC(N)CC2O)C2(C)C(C)CCC13CCC(=O)C32.Cl.Cl.Cl` [Example C3, 14-O-{[(1R,2R,4R)-4-Amino-2-hydroxy-cyclohexylsulfanyl]-acetyl}-12-desvinyl-12-[(3-amino-propylamino)-methyl] mutilin trihydrochlorid, reference compound], the MIC in experiment [1] (setting [5]) is 16 µg/mL; in experiment [2] (setting [6]) it was over 32 µg/mL.

As for `C=C[C@]1(C)C[C@@H](OC(=O)CS[C@@H]2C[C@H]3CC[C@@H](C2)N3C)[C@]2(C)[C@H](C)CC[C@]3(CCC(=O)[C@H]32)[C@@H](C)[C@@H]1O` [Retapamulin, retapamulin, reference compound], the MIC in experiment [1] (Staphylococcus aureus, ATCC49951) is at most 0.03 µg/mL; in experiment [2] (Escherichia coli, ATCC25922) it was 32 µg/mL (≈ 61.8 µM).

As for `C=C[C@]1(C)C[C@@H](OC(=O)CSCCN(CC)CC)[C@]2(C)[C@H](C)CC[C@]3(CCC(=O)[C@H]32)[C@@H](C)[C@@H]1O` [Tiamulin, tiamulin, reference compound], the MIC in experiment [1] (setting [3]) was 0.5 µg/mL (≈ 1.01 µM); in experiment [2] (setting [4]) it was over 32 µg/mL.
